From publication PMC12477080, “Polychlorinated biphenyls (PCBs) interact with drug metabolism in vivo” (Archives of Toxicology, 2025)

What was measured:
[1] = Determination of PCB concentrations in plasma of HELPcB and control participants; assay type: in vivo; conditions: human plasma; for PCB plasma concentration, Geometric mean, HELPcB: HELPcB group; for PCB plasma concentration, Geometric mean, HELPcB / PCB plasma concentration, Geometric mean, Control: N 10; for PCB plasma concentration, Geometric mean, Control: control group
Procedure: The laboratory regularly participates in round robins for the determination of PCBs in plasma (www.g-equas.de).
Plasma concentrations of PCB congeners were quantified in blood samples from all participants using gas chromatography/mass spectrometry (GC–MS) (Fig. 2A and Supplementary Table 2). A total of 19 PCB congeners were measured in control (n = 10) and HELPcB (n = 10) participants, with PCBs detected in all individuals. […] In the control group, PCB plasma concentrations primarily reflected background environmental exposure, such as dietary intake, representing the general population’s burden.

CYP2D6 = test: CYP phenotyping cocktail clinical study: metoprolol/α-OH-metoprolol metabolic ratio and its association with PCB plasma levels; conditions: linear regression of MR AUC0–8 h α-OH-metoprolol/metoprolol (CYP2D6 activity) on PCB plasma concentration
Procedure: (§1) The participants were ascertained not to have any acute disease by medical history, physical examination, laboratory screening, including hematological and biochemical blood tests, and a 12-lead electrocardiogram. […] The demographic data of the subjects are summarized in Table 1 in the supplemental data. At the enrollment visit, 2 blood samples (9 ml each) were collected into ethylenediaminetetraacetic acid (EDTA)-containing tubes taken from each subject for analyzing the plasma concentrations of PCB congeners and for pharmacogenetic analysis.
(§2) Participants stayed fasted from the evening before until 3 h after drug administration. After that, a meal was provided. Water and juice were permitted but alcoholic and caffeinated beverages were not allowed from the evening before drug administration until the last blood sample was taken on the next day. Venous blood samples (9 ml each) were collected through an intravenous catheter immediately before and 0.25, 0.5, 0.75, 1, 1.5, 2, 2.5, 3, 4, 5, 6, 7, 8, and 24 h after drug administration. Blood was drawn into EDTA-coated tubes, centrifuged at 1500 g for 10 min at 4 °C, and plasma samples were subsequently stored at − 80 °C until further analysis. After completely voiding the bladder immediately before drug administration, the participants collected urine from 0 to 24 h after drug administration. After weighing the collected urine, a 10 ml aliquot of each fraction was taken.
(§3) Commercially sourced standards and internal standards were used for quantification (see Supplemental Materials). In brief, 20 µl of the plasma samples were protein-precipitated with 80 µl methanol containing all internal standards or were treated for 16 h at 37 °C with 2 µl β-glucuronidase (1,000,000 Units) for deconjugation before protein precipitation with 78 µl methanol containing internal standards. Samples were centrifuged for 20 min, at 4 °C and 17,000 × g, and 40 µl of the supernatants were diluted with 40 µl LC–MS grade water, centrifuged again for 5 min at 4 °C and 17,000 × g and 50 µl supernatant were transferred to LC–MS vials 5 µl of the samples were injected into the LC–MS system.
(§4) An Agilent 1290 Infinity II UHPLC coupled with a SCIEX QTRAP6500 + triple quadrupole mass spectrometer was used. Chromatographic separation was achieved on an Agilent Poroshell 120 EC-C18 (1.9 µm, 2.1 × 50 mm) column with A: 0.1% formic acid in water and B: methanol with a flow rate of 0.7 ml/min and a total run time of 8.5 min. Analytes were eluted using a gradient program. The following gradient steps represent gradual changes in % B over time: 5% B from 0 to 0.2 min, 30% B at 2 min, 34% B at 4.8 min, 95% B at 6.5 min, 95% B at 7.5 min and re-equilibrating to 5% B at 7.7 min and 5%B till 8.5 min. A representative chromatogram is shown in supplemental Fig. 2. The scheduled MRM mode was applied for analyte detection in both positive and negative ESI modes (Supplementary Table 4). Calibration curves were constructed with linear regression using weighted (1/x^2) models (detailed information in supplemental methods).
(§5) Partial areas under the plasma concentration–time curves from 0 to 3 h (AUC0–3 h), from 0 to 4 h (AUC0–4 h), and from 0 to 8 h (AUC0–8 h) were calculated based on measured concentrations by the linear trapezoidal rule without extrapolation. […] Metabolic ratios (MR) were calculated by dividing the partial AUC of the metabolite by the respective partial AUC of the parent drug. The MRs were used as biomarkers for the individual CYP activities of the study subjects.

CYP2C9 = test: CYP phenotyping cocktail clinical study: torsemide/OH-torsemide metabolic ratio and its association with PCB plasma levels; conditions: linear regression of MR AUC0–8 h OH-torsemide/torsemide (CYP2C9 activity) on PCB plasma concentration
Procedure: as §1, §2, §3, §4, §5

CYP1A2 = test: CYP phenotyping cocktail clinical study: caffeine/paraxanthine metabolic ratio and its association with PCB plasma levels; conditions: linear regression of MR AUC0–8 h paraxanthine/caffeine (CYP1A2 activity) on PCB plasma concentration
Procedure: as §1, §2, §3
An Agilent 1290 Infinity II UHPLC coupled with a SCIEX QTRAP6500 + triple quadrupole mass spectrometer was used. […]
as §5, with “The MRs were used as biomarkers for the individual CYP activities of the study subjects.” left out

[2] = Stability of substrates and metabolites in quality control samples (benchtop, autosampler, freeze-thaw); assay type: physicochemical; conditions: for Autosampler stability (24 h) Av. Accuracy (%): 10° C for 24 hours in the autosampler; for 3x freeze-thaw Av. Accuracy (%): after three freeze-thaw cycles; for Benchtop stability (19 h) Ac. Accuracy (%): room temperature for 19 hours
Excerpt: The method was validated for intra- and interday accuracy and precision, stability, and matrix effects. […] Validation details are provided in Supplementary Tables 5–7 and supplemental Fig. 3. Glucuronidase/sulfatase digests were used to isolate CYP-specific metabolic activities, reducing interference from polymorphic UDP-glucuronosyltransferase (UGT) and sulfotransferase isoforms.
Supplemental table 6: Stability of the substrates and metabolites. Quality control samples were left at room temperature for 19 hours (benchtop stability) and at 10° C for 24 hours in the autosampler (autosampler stability) or were measured after three freeze-thaw cycles. Stability samples were measured against a freshly prepared set of calibrators and quality control samples.

SMILES | PCB plasma concentration, Geometric mean, HELPcB [1] | PCB plasma concentration, Geometric mean, Control [1] | further results
Clc1cc(Cl)c(-c2cc(Cl)c(Cl)c(Cl)c2Cl)cc1Cl [PCB 180] | 0.808 ng/mL | 0.372 ng/mL | –
Clc1cc(-c2cc(Cl)c(Cl)c(Cl)c2)cc(Cl)c1Cl [PCB 169] | BLQ | BLQ | –
Clc1cc(Cl)c(-c2ccc(Cl)c(Cl)c2Cl)cc1Cl [PCB138] | 0.672 ng/mL | 0.173 ng/mL | t value (CYP2D6): 0,157; β (standardized regression coefficient) (CYP2D6): 0,037; t value (CYP2C9): 0,341; β (standardized regression coefficient) (CYP2C9): 0,080; t value (CYP2C9; PM excl): 0,219; β (standardized regression coefficient) (CYP2C9; PM excl): 0,053; PCB plasma concentration, Mean [±SD] HELPcB ([1]; HELPcB (occupationally exposed) group): 0.795 ± 0.593 ng/mL; PCB plasma concentration, Mean [±SD] all ([1]; all participants): 0.493 ± 0.516 ng/mL; PCB plasma concentration, Mean [±SD] control ([1]; control group (background exposure)): 0.191 ± 0.090 ng/mL; t value (CYP1A2): 0,221; β (standardized regression coefficient) (CYP1A2): 0,052
Clc1ccc(-c2cc(Cl)c(Cl)c(Cl)c2Cl)cc1 [PCB 114] | 0.008 ng/mL | BLQ | –
Clc1ccc(Cl)c(-c2cc(Cl)ccc2Cl)c1 [PCB 52] | BLQ | BLQ | –
Clc1cc(-c2cc(Cl)c(Cl)c(Cl)c2Cl)cc(Cl)c1Cl [PCB 189] | 0.014 ng/mL | 0.007 ng/mL | –
Clc1ccc(-c2cc(Cl)c(Cl)c(Cl)c2)cc1 [PCB 81] | BLQ | BLQ | –
Clc1ccc(-c2cc(Cl)c(Cl)c(Cl)c2Cl)cc1Cl [PCB 156] | 0.097 ng/mL | 0.036 ng/mL | –
Clc1ccc(-c2cc(Cl)c(Cl)c(Cl)c2)cc1Cl [PCB 126] | BLQ | BLQ | –
Clc1ccc(Cl)c(-c2cc(Cl)c(Cl)cc2Cl)c1 [PCB 101] | 0.005 ng/mL | BLQ | –
Clc1cc(Cl)c(-c2cc(Cl)c(Cl)cc2Cl)cc1Cl [PCB 153] | 0.919 ng/mL | 0.297 ng/mL | –
Clc1cc(Cl)c(-c2cc(Cl)c(Cl)c(Cl)c2)cc1Cl [PCB 167] | 0.027 ng/mL | 0.008 ng/mL | –
Clc1ccc(-c2ccc(Cl)c(Cl)c2)cc1Cl [PCB 77] | BLQ | BLQ | –
Clc1cc(-c2ccc(Cl)c(Cl)c2Cl)cc(Cl)c1Cl [PCB 157] | 0.016 ng/mL | 0.005 ng/mL | –
Clc1ccc(-c2ccc(Cl)cc2Cl)cc1 [PCB 28] | 0.014 ng/mL | 0.006 ng/mL | –
Cc1ncc2n1-c1ccc(Cl)cc1C(c1ccccc1F)=NC2 [midazolam, reference compound] | – | – | Autosampler stability (24 h) Av. Accuracy (%) ([2]; QC conc. 0,1 ng/ml): 107,46%; 3x freeze-thaw Av. Accuracy (%) ([2]; QC conc. 0,1 ng/ml): 104,96%; Benchtop stability (19 h) Ac. Accuracy (%) ([2]; QC conc. 0,1 ng/ml): 106,81%; Autosampler stability (24 h) Av. Accuracy (%) ([2]; QC conc. 0,3 ng/ml): 104,87%; 3x freeze-thaw Av. Accuracy (%) ([2]; QC conc. 0,3 ng/ml): 98,61%; Benchtop stability (19 h) Ac. Accuracy (%) ([2]; QC conc. 0,3 ng/ml): 104,39%; Autosampler stability (24 h) Av. Accuracy (%) ([2]; QC conc. 0,05 ng/ml): 103,51%; 3x freeze-thaw Av. Accuracy (%) ([2]; QC conc. 0,05 ng/ml): 109,93%; Benchtop stability (19 h) Ac. Accuracy (%) ([2]; QC conc. 0,05 ng/ml): 89,44%; Autosampler stability (24 h) Av. Accuracy (%) ([2]; QC conc. 12 ng/ml): 110,93%; 3x freeze-thaw Av. Accuracy (%) ([2]; QC conc. 12 ng/ml): 103,85%; Benchtop stability (19 h) Ac. Accuracy (%) ([2]; QC conc. 12 ng/ml): 109,38%; Autosampler stability (24 h) Av. Accuracy (%) ([2]; QC conc. 30 ng/ml): 99,76%; 3x freeze-thaw Av. Accuracy (%) ([2]; QC conc. 30 ng/ml): 97,41%; Benchtop stability (19 h) Ac. Accuracy (%) ([2]; QC conc. 30 ng/ml): 99,8%
Clc1ccc(-c2ccc(Cl)c(Cl)c2Cl)cc1Cl [PCB 105] | 0.014 ng/mL | BLQ | –
Clc1ccc(-c2cc(Cl)c(Cl)c(Cl)c2)c(Cl)c1 [PCB 123] | BLQ | BLQ | –
